Data reported in patent publication US10575515B2, “Methods and compositions for preserving tissues and organs” (The General Hospital Corporation, priority 2010, dated 2020).

Columns and labels:
hepatocytes [1] = assay: SZNF storage of cells at −4° C. with metabolic supplement, cell viability; format: cell-based; settings: tandem SZNF with metabolic suppressant
Procedure: Inventors are testing a variety of metabolic supplements to enhance viability during preservation. One of the most successful additives inventors tested is magnolol, a biphenolic compound with multiple properties (including tumor suppression and antioxidative capabilities). […] Note that this study was performed early on where stable preservation temperature in plate culture models was −4° C., testing at −10° C. is currently in progress.
The cells were preserved on collagen coated 6 well plates and cultured at 37° C. for one day prior to preservation. Cells were then preserved 48 hours at −4° C.; viability was determined 1 hr after rewarming

hepatocytes [2] = assay: Hepatocyte viability after 60 min incubation with isotonic mixtures of sugars and DMSO; format: cell-based
Procedure: Significant loading of 3OMG can be achieved within 20 minutes (FIG. 37a). The hepatocyte viability when incubated with 3OMG is statistically equal to other saccharides that are not cryopreservative for mammalian cells (FIG. 37b). By comparison, incubation with a common cryopreservative dimethyl sulfoxide (DMSO) under similar conditions reduces viability to 12%.
Hepatocytes can be loaded with 3OMG within 20 minutes in vitro. FIG. 37A illustrates that the kinetics of 3OMG uptake show significant loading of cells with 3OMG within 20 minutes, and even more rapid release with washing; inventors can currently perfuse the livers in stable condition for more than 6 hrs, which is more than sufficient for loading with 3OMG.

rat livers = assay: Subzero nonfreezing storage of whole rat livers at −5° C., histology (H&E); settings: loaded with 3OMG, 24 hours at −5° C., then NELP with red blood cells
hepatocytes [3] = assay: Long-term hepatic functions of cryopreserved hepatocytes in collagen sandwich culture; format: cell-based; settings: albumin, urea, cytochrome P450; 3OMG loaded and frozen
Procedure: Methods: Cells were cultured in a collagen sandwich for […], and media collected daily were analyzed for albumin and urea. All values were normalized by viable cell number (DNA content) and shown as o the means±se (n>9). Urea secretion and resorufin formation were statistically not different (p=0.51 and p=0.3 respectively). Albumin production on days 7-13 were statistically different at p=0.014 (FIG. 39).

[4] = Supercooling in cryovials at subzero temperatures in selected media formulations; format: physicochemical
Procedure: We tested a variety of preservation media and additives for achieving SZNF storage overnight in a controlled rate freezer. We were able to reach −10° C. without any freezing in supplemented University of Wisconsin (UW) and Hypothermosol (HTS) by proper tuning of the rate of temperature reduction. […] FIG. 48 depicts the temperature profile for successful subzero cooling at −10° C.

hepatocytes [5] = assay: Cryopreservation of 3OMG-loaded hepatocytes, post-thaw viability by trypan blue exclusion; format: cell-based; settings: Hepatocyte; 200 mM 3OMG, storage in liquid nitrogen up to one week; read-out: post-thaw cell viability (percentage of unfrozen control)
Procedure: Hepatocytes were incubated with 200 mM 3OMG for 60 min and then washed with sugar-free medium for 30 min. Controls were incubated in glucose-free DMEM (no-sugar control), sucrose (non-permeable/non-intracellular control), and D-glucose (permeable but metabolizable control). Following incubation, cells were pelleted by centrifugation for 5 min, supernatant decanted, and resuspended in cold HypoThermosol solution (HTS) with 200 mM 3OMG, 2DG, sucrose, or D-glucose (1×10^6 cell/mL). Cell suspensions were transferred to 1 mL cryogenic vials and cooled at −1° C./min to −6° C., seeded to induce the formation of extracellular ice by application of cold forceps to the exterior of the cryovials, and then cooled at −1° C./min to −80° C., and finally transferred to liquid nitrogen (−196° C.) for storage lasting 1 to 7 days. Following storage, samples were rapidly thawed in a 37° C. water bath for 2 min with gentle agitation. The samples were then diluted 1:10 in D-glucose-free DMEM and incubated for 10 min at 37° C. to wash out the loaded sugar compounds. Samples were then centrifuged, supernatant decanted, and resuspended in culture medium. The viability of the cryopreserved cells was determined immediately after thawing using a trypan blue exclusion assay and expressed as percent of unfrozen control. […]

[6] = test system: C3A cells (human liver carcinoma line); assay: Cryopreservation of C3A cells with troglitazone, post-thaw viability by trypan blue exclusion; format: cell-based; settings: 25 μM troglitazone 30 mins, cryopreservation in liquid nitrogen, vs without
Text: Inventors performed a molecular docking study to identify ligands of PPAR-γ, a transcription factor that is known to have the ability to modulate metabolic rate (see FIG. 34), where inventors identified Troglitazone as a candidate. Inventors also performed preliminary studies to test the effect of supplementation in preservation efficacy. In these initial studies inventors used C3A cells (human liver carcinoma line) and cryopreservation rather than supercooling, due to availability of data to be used as controls. Inventors observed that Troglitazone increased post-thaw viability ˜2.5 fold. We are currently testing Troglitazone and other compounds with primary rat hepatocytes both in cryopreservation and supercooled storage. Nearly confluent C3A cell flasks were trypsinized in PBS solution; cells were sedimented by centrifugation (10 min at […] at 4 degree C.). The medium was replaced by adding 2 mL of HTS and the cell pallets were re-suspended in the HTS by gentle pipetting. The cell samples in 1 mL aliquots were put in 1.5 mL cryovials. The samples were frozen in a controlled rate freezer using a freeze controlled Cryobath (Cryologic, Victoria, Australia) with a CL-8800 temperature controller (Cryologic). A cooling rate of 1 degree C./min was used. The samples were seeded with ice at −4 degrees C. by using a cotton bulb dipped in liquid nitrogen. […]

For `C=CCc1ccc(O)c(-c2cc(CC=C)ccc2O)c1` [magnolol, 5,5′-Diallyl-2,2′-biphenyldiol], the “preservation of viability of cells compared to SZNF in the absence of metabolic suppressant agent” value (hepatocytes [1]) was “at least 60%”.
With `C[S+](C)[O-]` [dimethyl sulfoxide (DMSO), dimethyl sulfoxide, reference compound] the “hepatocyte viability after incubation” value (hepatocytes [2]; incubation 60 min, isotonic mixture) was 12%.
In the case of `CO[C@@H]([C@H](O)[C@H](O)CO)[C@@H](O)C=O` [3OMG, 3-O-methyl-glucose], the “histology after storage and NELP perfusion” value (rat livers) is reported as “perfect preservation of microstructure”, the “long-term hepatic functions vs non-frozen hepatocytes” value (hepatocytes [3]) is reported as “similar” and the “temperature reached without any freezing” value ([4]; overnight, controlled rate freezer) is reported as −15 °C. The “fraction of the time the protocol is stable” value ([4]; −15° C. in HTS) was “about 50%”, the viability at 200000 µM (hepatocytes [5]) was greater than 50% and the “toxicity for hepatocytes” value (hepatocytes [2]; concentration range studied, 60 min incubation) was “minimally toxic”.
In the case of `Cc1c(C)c2c(c(C)c1O)CCC(C)(COc1ccc(CC3SC(=O)NC3=O)cc1)O2` (stereo not drawn) [Troglitazone], the “increase of post-thaw viability” value [6] is reported as roughly 2.5 fold.
